Data as given in US20030017976A1, “Therapeutic properties of liposome-encapsulated immunomodulators” (priority 1998, published 2003).
“And” between values parts separate entries of the source, which are not always exact repeats. Equal values may be shown once. Marks after values point to notes of the source that are not given here.

Columns and labels:
[1] = system: L3.6pl human pancreatic tumors; assay: Therapy of L3.6pl human pancreatic tumors in nude mice; format: in vivo, mouse; details: CPT-11 100 mg/kg i.p. once a week +/− oral JBT 3002 (tablet) 0.05 mcg/dose
Procedure: Table 19 (A, B, C). Therapy of human pancreatic carcinoma liver metastasis. The pancreas of nude mice were injected with 1×10^6 viable human pancreatic cancer L3.6pl cells. […] This regimen was repeated on a weekly basis for 3 weeks. The mice were killed. Pancreatic tumors, liver metastases, and lymph node metastasis were quantified.

[2] = system: human monocytes; assay: Northern blot of cytokine mRNA in monocytes; format: cell-based; details: LPS 100 ng/ml, MLV-JBT3002 500 nmol/ml, JBT3002 1 ng/ml; 1-3 h
Procedure: Total RNA was extracted using Tri reagent™ kit according to the manufacturer's instructions (Molecular Research Center, Inc., Cincinnati, Ohio). […] Cytokine and GAPDH and mRNA were detected using cDNA probes of Human TNF-α, IL-1β, IL-6 and rat glyceraldehyde-3-phosphate dehydrogenase (GAPDH) labeled by nick translation with α-^32P-CTP. Hybridizations were performed as described (Dong, Z. et al. J Natl. Cancer Inst. (1994) 86:913).

[3] = system: C57BL/6 mice; assay: Prevention of CPT-11 induced intestinal damage and morbidity by oral immunomodulator; format: in vivo, mouse; details: oral saline or JBT3002 0.1, 1.0 and 10 μg/dose in PC liposomes, then CPT-11 100 mg/kg i.p. 4 days
Procedure: Experimental Design and Methods. […] Tissue was harvested 7 days after the last injection (small intestine and colon distal to the cecum). Histology was prepared. Some mice were monitored for the presence of drug toxicity.
Example 6 has shown that 100, 150, and 200 mg/kg at 4 consecutive i.p. administrations are highly toxic to C57BL/6 mice.

[4] = system: IL-15; assay: RT-PCR of IL-15 in PEM and IEC6 cells; format: cell-based
From the text: To determine whether macrophages or epithelial cells respond to JBT 3002 by upregulating IL-1 5, the RT-PCR technique was used and the results are shown in FIG. 23.

[5] = system: human blood monocytes; assay: ELISAs for TNF-α, IL-1β and IL-6 in human blood monocytes; format: cell-based
Procedure: Blood-cells buff coats were obtained on the day of collection from the Gulf Coast Regional Blood Center (Houston, Tex.). The buffy coats were diluted with HBSS and layered on to 15 ml of prescreened entotoxin-free lymphocyte separation medium (Ficoll-Hypaque; density: 1.077). After 10 min of centrigugation at 1500×g, the mononuclear fractions were collected, washed once, and resuspended in 20 ml of elutriation medium (2% human albumin-100 U/mi penicillin and 100 μg/ml streptomycin in PBS). Monocyte-rich fractions were isolated by countercurrent elutriation using a JE-6B elutriation rotator (B3eckman) as described in detail previously (Fidler, I. et al. Prog. Clin. Biol. Res. (1989) 288:169). At a speed of 3000 rpm and flow rate of 41 ml/min, the monocyte fraction was obtained; it contained >90-95% monocytes as identified by nonspecific esterase staining morphological examination; they were >95% viable as measured by the trypan blue exclusion test. The cells were incubated in serum-free EMEM for 18 h prior to assays.
After overnight incubation in serum-free EMEM, monocytes plated at the density of 1×10^5/38-mm^2well /200 μl of EMEM (96-well plates) were treated as indicated in the Results section. The culture supernatants were harvested and used immediately or stored at −70° C. The supernatants were diluted at 1:5 or 1:10 and assayed for cytokines using ELISA kits according to the manufacturer's instructions.

[6] = system: peritoneal exudate macrophages (PEM); assay: Nitrite (NO) production by mouse peritoneal exudate macrophages; format: cell-based; details: available to 1×10^5 PEM
Procedure: Peritoneal exudate macrophages (PEM) were collected by peritoneal lavage from mice given an intraperitoneal injection of 2.0 ml of thioglycollate broth (Baltimore Biological Laboratory, Cockeysville, Md.) 4 days before harvest (Dong Z, O'Brian C A, et al. J Leukoc Biol (1993) 53:53-60; Xie K, Huang S, et al. Cancer Res (1995) 55:3123-31). The PEM were washed in Ca^+2- an Mg^2+-free HBSS and resuspended in serum-free medium: 1×10^5 cells were plated into each 38-mm^2 well of 96-2311 culture plates (Falcon Plastics, Oxnard, Calif.). After a 90-min incubation, the nonadherent cells were removed by washing with medium. More than 98% of the adherent cell populations were macrophages according to morphology and phagocytic criteria (Saiki I, et al. J Immunol (1985) 135:684-8). […] After treatment, the cultures were washed and macrophage-mediated cytotoxicity against different tumor targets was determined. […]
Nitrite accumulation in the culture supernatant was measured in a colorimetric assay as described previously (Ding A E, et al. J Immunol (1988) 141:2407-12). […] The mixtures were incubated 10 min with shaking, and A540 was measured with the use of a microplate reader (Model 3550; Bio-Rad Corp., San Francisco, Calif.). The concentration of nitrite was determined by comparing it with a standard solution of sodium nitrite in medium.

[7] = system: CT-26 colon carcinoma; assay: Therapy of experimental liver metastasis of CT-26 colon carcinoma with CPT-11 and oral JBT 3002
[8] = Table 15, oral JBT 3002 0.05 μg/dose 3 consecutive days and/or CPT-11 100 mg/kg 4 daily i.p., day 21
[9] = Table 16, oral JBT3002 0.05 μg dose thrice weekly 3 weeks and/or CPT-11 100 mg/kg i.p. once a week, day 24

Substance: N-hexadecanol-S-[2(R)-3-diodecanoyloxypropyl]-L-cysteinyl-L-alanyl-D-isoglutaminyl-glycyl-taurine sodium salt [JBT3002]
- Incidence LN met ([1]; 31 days): 7/10
- Incidence WT/PC ([1]; 31 days): 3/10
- Incidence liver met ([1]; 31 days): 2/9
- Tumor weight, Average ([1]; 31 days): 706.22 mg
- Tumor weight, Max ([1]; 31 days): 981 mg
- Tumor weight, Median ([1]; 31 days): 733 mg
- Tumor weight, Min ([1]; 31 days): 362 mg
- tumor weight (range) ([1]; 31 days): (362-981) mg
- Tumor weight, single animals ([1]; 31 days after tumor cell injection, sodium salt): 862 mg and 871 mg and 981 mg and 621 mg and 362 mg and 733 mg and 559 mg and 820 mg and 547 mg
- mRNA for TNF-α, IL-1β, and IL-6 [2]: High levels of mRNA for TNF-α, IL-1β, and IL-6
- intestinal toxicity (histology) [3]: the intestines were normal
- IL-15 expression in response to JBT 3002 (RT-PCR) [4]: Peritoneal exudate macrophages (PEM), but not intestinal cells (IEC6), upregulate IL-15 expression
- incubation time at which TNF-α protein was detected ([5]; free-form JBT3002 1 ng/ml or MLV-JBT3002 100 nmol/well of 1 mg/300 μmol lipid): 2 h
- concentration range inducing TNF-α production ([5]; monocytes treated for 8 h): 0.001 to 10 ng/mL
- serum dependence of cytokine production ([5]; serum-free EMEM vs 5% FBS): not significantly altered in the absence of serum
- minimal concentration of JBT3002 required to generate significant levels of NO (20 μM) [6]: 0.12 to 0.15 ng
- dose producing similar therapeutic effects as 1.0 μg/dose of MLV-JBT 3002 ([7]; Table 11): 0.01 μg/dose
- Liver metastasis Incidence [7, 8]: 9/10
- Liver weight [7, 8]: 1.6 ± 0.2^e g
- Spleen tumor Incidence [7, 8]: 10/10
- Spleen tumor Mean tumor volume [7, 8]: 88 ± 34^f mm^3
- Liver metastasis Incidence [7, 9]: 9/10
- Liver weight [7, 9]: 4.2 ± 1.6 g
- Spleen tumor Incidence [7, 9]: 8/10
- Spleen tumor Mean tumor volume [7, 9]: 241 ± 84 mm^3
- potency relative to liposomal formulation ([7]; Tables 12 and 14): more potent than liposomal formulation
